This experiment concerns the target T1, Or10a (Drosophila melanogaster, UniProt Q9VYZ1).
T1 construct: his-tag; made in house; host or cells: baculovirus-infected Sf9 cells
T1 sequence (Q9VYZ1 1-406): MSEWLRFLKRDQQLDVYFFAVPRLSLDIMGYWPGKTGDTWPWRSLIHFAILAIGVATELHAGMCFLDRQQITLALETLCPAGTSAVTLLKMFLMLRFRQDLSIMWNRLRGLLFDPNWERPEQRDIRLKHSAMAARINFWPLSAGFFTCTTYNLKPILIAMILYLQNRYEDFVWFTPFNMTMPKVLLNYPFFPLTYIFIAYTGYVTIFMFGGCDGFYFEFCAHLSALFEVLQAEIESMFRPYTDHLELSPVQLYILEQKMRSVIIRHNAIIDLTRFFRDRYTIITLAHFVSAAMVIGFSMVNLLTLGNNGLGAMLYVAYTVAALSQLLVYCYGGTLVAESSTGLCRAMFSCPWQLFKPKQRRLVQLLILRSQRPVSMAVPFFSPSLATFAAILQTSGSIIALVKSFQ
In words: EIS sensor, Or10a liposomes on gold electrode. Format: biochemical. The protocol:
Prior to their use, liposomes were defrosted on ice and then destabilized by incubating with 0.2% CHAPS for 15 min at room temperature. Then 200 μg of purified odorant receptor^28 was added to 1 mg of liposomes and rotated at 10 rpm for 1 h at room temperature. Excess detergent was removed by four additions of 25 mg of Bio-Beads SM-2 (Bio-Rad, USA) and incubation at 4° C. for 30 min, 2 h, overnight and a further 2 h respectively. The Bio-Beads were removed after each incubation period. The OrX or OrX/Orco integrated liposomes were pelleted by centrifugation at 100,000 g for 1 h, and were resuspended in 500 μL of rehydration buffer. Integration of OrXs and Orco into liposomes was assessed by density gradient ultracentrifugation (DGU) using Accudenz (Accurate Chemical & Scientific Corporation, USA). The integrated liposomes were brought to 40% Accudenz by the addition of an equal volume of 80% Accudenz solution, placed at the bottom of an ultra-centrifugation tube, and overlaid with 30% Accudenz solution, and DGU buffer (25 mM HEPES pH 7.5, 100 mM NaCl, 10% glycerol). The sample was then centrifuged at 100,000 g for 4 h at 4° C. Liposomes will float to the top of the gradient after Accudenz DGU due to their low density.
2 mM MHA was prepared by dissolving 1.36 μl of MHA in 5 ml ethanol (AR grade). The cleaned electrodes were immersed into MHA solution and incubated overnight. The next day, all the electrodes were washed with ethanol and deionised water thoroughly in order to remove the unreacted acid. A 2:1 mol:mol ratio of EDC:NHS (100 mM EDC, 50 mM NHS) was prepared in 2 ml PBS (pH=6.5) solution. Then, the electrodes were covered in 100 μl of this solution at 28° C. for an hour to activate the carboxylic (COOH) groups of the MHA.
PBS solution was prepared by immersing one tablet of PBS in 200 ml of milli-Q water (according to manufacturers instructions) and filtered using 0.2-μm syringe filter. The pH of the prepared buffer solution was measured with a pH meter. OrX liposomes or OrX/Orco liposomes were diluted 100 fold in PBS buffer solution (pH=7.4) and the COOH-activated electrodes were incubated in that buffer solution at room temperature for one hour. Then, the electrodes were washed extensively with PBS buffer solution to wash out any unbound liposomes.
PBS (pH=7.4) was used as an electrolyte to conduct electrochemical measurements. PBS buffer was degassed for about 30 minutes prior to electrochemical measurements. Odorant solutions of concentration ranging from 1 aM to 1 μM were prepared by sequential dilution in PBS solution containing 1% DMSO. OR immobilized electrodes were incubated in relevant odorant solution for ˜30 minutes each and washed gently with PBS before EIS measurements.
EIS measurements were done in a 3 electrode cell containing Ag/AgCl (3 M NaCl, 0.209 V vs. SHE) reference electrode, coiled platinum wire as a counter electrode and the gold disk as a working electrode at a fixed voltage of −0.7 using PalmSens potentiostat. Degassed PBS was used as an electrolyte.
EIS measurements were performed on gold electrodes functionalised with OrX liposomes (either Or10a or Or22a), OrX/Orco liposomes, or empty liposomes prior to and after target ligand or control ligand incubation with increasing concentrations (1 aM to 100 μM). Dose response curves were obtained by defining sensor response as −(ΔRp/R^op) versus log[C(Ligand)]. FIG. 4a presents the EIS response in terms of Nyquist plot for the Or10a liposome functionalized sensors when exposed to a solution containing one of the known target ligands of Or10a, methyl salicylate, at various concentrations. […] The dose response curve (FIG. 4b) was obtained by plotting the change in polarization resistance −(ΔRp/R^op) versus log[conc(Ligand)], as the sensor response. Here, Rp is the polarization resistance after Or10a liposome-target interaction and R^op is the polarization resistance before Or10a liposome-target interaction.

Molecules are shown by their SMILES.

On to `CCCCCC(=O)OC` [methyl hexanoate], for which the “sensor response to control ligand” value (EIS dose response) is given as “negligible response”.
Take `COC(=O)c1ccccc1O` [methyl salicylate]: the “limit of detection (LOD)” value (EIS dose response, ligand 1 aM to 100 μM) turned out to be 0.1 pM. Moreover, the EC50 (commonly the concentration that produces a half-maximal response) by setting is: (Table 1, approximate) approximately 0.1 nM; (Table 3, fitted dose response) 0.0022 nM. For the same compound, the Sensitivity limit (Table 1, * estimated visually from dose response graph) is ~10^−10 M*. For the same compound, the “Detection Range” value (Table 3) was 10^−13 to 10^−7 M.

(Values after patent US20210255184A1, “Biosensor Device and Methods” (The New Zealand Institute for Plant and Food Research …, priority 2018, published 2021).)
